Common to all, as to details: in vivo
The nature of series [1]: Oral bioavailability in rat. The format is ADME, organism-based.
Series [2] is described as follows: (§1) Half life in rat. The format is ADME, organism-based.
Series [3] in a line: Cmax in squirrel monkey at 10 mg/kg. The format is ADME, organism-based, Saimiri sciureus. Details: dose 10 mg/kg.
Series [4] in a line: Cmax in squirrel monkey at 3 mg/kg. The format is ADME, organism-based, Saimiri sciureus. Details: dose 3 mg/kg.
The species entered for the next series is Rattus norvegicus. The series is described as §1. The format is ADME, organism-based.

The bioavailability is dose-corrected exposure relative to a reference, in per cent. For orientation: half-life means how long it takes for the measured level to halve. One may read the Cmax as the highest concentration seen after dosing.

Each structure is given as a SMILES string. Some results are limits rather than exact numbers.

`CC(C)(c1cc(-c2cccc(-c3cc(C(=O)NC4CC4)c[n+]([O-])c3)c2)c2ncccc2c1)S(C)(=O)=O`: the bioavailability in series [1] turned out to be 0%. The half-life in series [2] is under 1 h.
In series [1], `CC(C)(c1cc(-c2cccc(-c3ccc(CO)[n+]([O-])c3)c2)c2ncccc2c1)S(C)(=O)=O` had a bioavailability of 10%. The compound further had a half-life in series [2] of 1.7 h.
As for `CC(C)(c1cc(-c2cccc(-c3ccc(C4CC4C(=O)O)cc3)c2)c2ncccc2c1)S(C)(=O)=O` (single isomer, unassigned), in series [1], the bioavailability is 100%. Also, the half-life in series [2] was 2 h. The highest level in series [3] (Cmax) was 65 µM.
With `Cc1ccc(-c2cccc(-c3cc(C(C)(C)S(C)(=O)=O)cc4cccnc34)c2)c[n+]1[O-]`, in series [1], the bioavailability was determined as 83%. The half-life in series [2] is 1.2 h.
On to `CC(C)(c1cc(-c2cccc(-c3ccc(CCC(=O)O)cc3)c2)c2ncccc2c1)S(C)(=O)=O`, for which the bioavailability in series [1] turned out to be 24%. In series [2], this compound had a half-life of 1 h.
As for `CC(C)(O)c1cc(-c2cccc(-c3cc(C(C)(C)S(C)(=O)=O)cc4cccnc34)c2)c[n+]([O-])c1`, the bioavailability in series [1] is 0%. The same compound had a half-life in series [2] of under 1 h.
Taken in the same sequence, the figures for `CC(C)NC(=O)Nc1ccc(-c2cccc(-c3cc(C(C)(C)S(C)(=O)=O)cc4cccnc34)c2)c[n+]1[O-]` were 11% and 0.7 h.
In turn, `CC(C)(O)c1ccc(-c2cccc(-c3cc(C(C)(C)S(C)(=O)=O)cc4cccnc34)c2)c[n+]1[O-]` yielded a bioavailability in series [1] of 100%. Besides, in series [2], the half-life was 1.5 h. In series [4], this compound came in with a Cmax of 41 µM.
Consider `CC(=O)Nc1ccc(-c2cccc(-c3cc(C(C)(C)S(C)(=O)=O)cc4cccnc34)c2)c[n+]1[O-]`, for which, in series [1], the bioavailability turned out to be 47%. This compound had a half-life in series [2] of 0.2 h.
`Cc1noc(/C(=C/c2cccc(-c3cc(C(C)(C)S(C)(=O)=O)cc4cccnc34)c2)c2ccc(S(C)(=O)=O)cc2)n1` returned a Cmax in series [3] of 3.8 µM.
Consider `CC(C)(CC(=O)O)c1ccc(-c2cccc(-c3cc(C(C)(C)S(C)(=O)=O)cc4cccnc34)c2)cc1`, for which the bioavailability in series [1] stood at 100%. Also, the half-life in series [2] is 2 h.
In turn, `CC(C)(c1cc(-c2cccc(-c3ccc(C(=O)O)cc3)c2)c2ncccc2c1)S(C)(=O)=O` yielded a bioavailability in series [1] of 54%. This compound had a half-life in series [2] of 2 h.
The compound `CC(C)(c1cc(-c2cccc(-c3ccc(C(=O)NC4CC4)[n+]([O-])c3)c2)c2ncccc2c1)S(C)(=O)=O` gave a bioavailability in series [1] of 100%. This compound also gave a half-life in series [2] of 6.5 h.
For the compound `CC(C)(c1cc(-c2cccc(-c3ccc(CC(=O)O)cc3)c2)c2ncccc2c1)S(C)(=O)=O`, the bioavailability in series [1] stood at 60%. This compound gave a half-life in series [2] of 0.3 h.
`CC(C)(c1cc(-c2cccc(-c3ccc[n+]([O-])c3)c2)c2ncccc2c1)S(C)(=O)=O` came in with a bioavailability in series [1] of 76%. The compound further gave a half-life in series [2] of 1.2 h.
`CC(C)(c1cc(-c2cccc(-c3ccc(C4CC4C(=O)O)cc3)c2)c2ncccc2c1)S(C)(=O)=O` (single isomer, unassigned; enantiomer A): the t1/2 in the series filed under Rattus norvegicus came to 2 h.

The values above are taken from ChEMBL document CHEMBL1141472, “Design, synthesis, and biological evaluation of 8-biarylquinolines: a novel class of PDE4 inhibitors” (Bioorg Med Chem Lett, 2008).
